Assay results published in patent publication US10660877B2 (BRISTOL-MYERS SQUIBB COMPANY, priority 2016, dated 2020).
Like-named read-outs stand apart in the source and are kept apart here.

Assays:
[1] = target: human TLR8 (Homo sapiens (Human), UniProt Q9NR97); assay: TLR8 inhibition reporter assay (HEK-Blue cells, SEAP reporter, R848 stimulation);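 note: compounds tested from 0.05 nM to 50 µM, 22 h at 37 °C, SEAP measured with HEK-Blue Detection, inhibition relative to agonist plus DMSO versus a known inhibitor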
Method: TLR7/8/9 Inhibition Reporter Assays
Briefly, cells are seeded into Greiner 384 well plates (15000 cells per well for TLR7, 20,000 for TLR8 and 25,000 for TLR9) and then treated with test compounds in DMSO to yield a final dose response concentration range of 0.05 nM-50 μM. […] After a 22 hour incubation at 37° C., 5% CO2, SEAP levels are determined with the addition of HEK-Blue™ Detection reagent (Invivogen), a cell culture medium that allows for detection of SEAP, according to manufacturer's specifications. The percent inhibition is determined as the % reduction in the HEK-Blue signal present in wells treated with agonist plus DMSO alone compared to wells treated with a known inhibitor.

[2] = target: human TLR7 (Homo sapiens (Human), UniProt Q9NYK1); assay: TLR7 inhibition reporter assay (HEK-Blue cells, SEAP reporter, gardiquimod stimulation); format: cell-based
[3] = target: human TLR9 (Homo sapiens (Human), UniProt Q9NR96); assay: TLR9 inhibition reporter assay (HEK-Blue cells, SEAP reporter, ODN2006 stimulation);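 note: compounds tested over 0.05 nM to 50 µM, 22 h incubation, inhibition taken as SEAP signal drop from agonist plus DMSO wells toward a known inhibitor control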
[4] = read-out: TLR8 IC50, HEK-Blue cells overexpressing human TLR8, R848 15.9 μM
[5] = HEK-Blue cells overexpressing human TLR7, gardiquimod 7.5 μM
[6] = read-out: TLR9 IC50, HEK-Blue cells overexpressing human TLR9, ODN2006 5 nM
[7] = TLR8 IC50, HEK-Blue cells overexpressing human TLR8, R848 15.9 μM
[8] = TLR9 IC50, HEK-Blue cells overexpressing human TLR9, ODN2006 5 nM
[9] = read-out: TLR8 IC50, HEK-Blue cells, R848 15.9 μM
[10] = HEK-Blue cells, gardiquimod 7.5 μM
[11] = read-out: TLR9 IC50, HEK-Blue cells, ODN2006 5 nM

Chain of human TLR9 (Q9NR96 26-1032): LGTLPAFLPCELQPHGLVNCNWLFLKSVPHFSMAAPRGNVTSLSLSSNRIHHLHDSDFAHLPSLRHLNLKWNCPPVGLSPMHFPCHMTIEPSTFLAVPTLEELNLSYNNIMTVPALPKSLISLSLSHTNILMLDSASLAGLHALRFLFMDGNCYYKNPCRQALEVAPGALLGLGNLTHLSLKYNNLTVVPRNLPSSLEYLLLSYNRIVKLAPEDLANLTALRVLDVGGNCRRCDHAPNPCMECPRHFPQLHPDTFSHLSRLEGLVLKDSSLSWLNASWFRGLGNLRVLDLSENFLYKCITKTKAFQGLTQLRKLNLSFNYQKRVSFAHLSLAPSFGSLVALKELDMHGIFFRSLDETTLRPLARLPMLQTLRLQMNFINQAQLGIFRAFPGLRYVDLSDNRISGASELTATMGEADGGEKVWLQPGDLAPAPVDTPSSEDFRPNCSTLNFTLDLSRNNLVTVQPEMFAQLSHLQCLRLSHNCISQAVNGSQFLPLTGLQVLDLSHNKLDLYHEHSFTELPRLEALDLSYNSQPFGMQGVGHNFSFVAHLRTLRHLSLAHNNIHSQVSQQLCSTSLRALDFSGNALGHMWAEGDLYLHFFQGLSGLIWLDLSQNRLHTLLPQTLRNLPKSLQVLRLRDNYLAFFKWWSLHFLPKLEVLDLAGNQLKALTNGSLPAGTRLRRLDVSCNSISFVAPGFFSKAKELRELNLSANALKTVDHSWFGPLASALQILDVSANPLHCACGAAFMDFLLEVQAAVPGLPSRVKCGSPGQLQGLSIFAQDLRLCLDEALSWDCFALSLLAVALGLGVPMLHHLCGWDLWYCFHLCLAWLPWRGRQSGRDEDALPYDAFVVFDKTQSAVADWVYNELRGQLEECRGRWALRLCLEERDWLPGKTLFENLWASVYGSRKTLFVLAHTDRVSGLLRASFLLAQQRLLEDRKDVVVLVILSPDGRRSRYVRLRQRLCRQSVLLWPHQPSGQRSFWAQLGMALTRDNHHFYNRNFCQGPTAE
Chain of human TLR8 (Q9NR97 27-1041): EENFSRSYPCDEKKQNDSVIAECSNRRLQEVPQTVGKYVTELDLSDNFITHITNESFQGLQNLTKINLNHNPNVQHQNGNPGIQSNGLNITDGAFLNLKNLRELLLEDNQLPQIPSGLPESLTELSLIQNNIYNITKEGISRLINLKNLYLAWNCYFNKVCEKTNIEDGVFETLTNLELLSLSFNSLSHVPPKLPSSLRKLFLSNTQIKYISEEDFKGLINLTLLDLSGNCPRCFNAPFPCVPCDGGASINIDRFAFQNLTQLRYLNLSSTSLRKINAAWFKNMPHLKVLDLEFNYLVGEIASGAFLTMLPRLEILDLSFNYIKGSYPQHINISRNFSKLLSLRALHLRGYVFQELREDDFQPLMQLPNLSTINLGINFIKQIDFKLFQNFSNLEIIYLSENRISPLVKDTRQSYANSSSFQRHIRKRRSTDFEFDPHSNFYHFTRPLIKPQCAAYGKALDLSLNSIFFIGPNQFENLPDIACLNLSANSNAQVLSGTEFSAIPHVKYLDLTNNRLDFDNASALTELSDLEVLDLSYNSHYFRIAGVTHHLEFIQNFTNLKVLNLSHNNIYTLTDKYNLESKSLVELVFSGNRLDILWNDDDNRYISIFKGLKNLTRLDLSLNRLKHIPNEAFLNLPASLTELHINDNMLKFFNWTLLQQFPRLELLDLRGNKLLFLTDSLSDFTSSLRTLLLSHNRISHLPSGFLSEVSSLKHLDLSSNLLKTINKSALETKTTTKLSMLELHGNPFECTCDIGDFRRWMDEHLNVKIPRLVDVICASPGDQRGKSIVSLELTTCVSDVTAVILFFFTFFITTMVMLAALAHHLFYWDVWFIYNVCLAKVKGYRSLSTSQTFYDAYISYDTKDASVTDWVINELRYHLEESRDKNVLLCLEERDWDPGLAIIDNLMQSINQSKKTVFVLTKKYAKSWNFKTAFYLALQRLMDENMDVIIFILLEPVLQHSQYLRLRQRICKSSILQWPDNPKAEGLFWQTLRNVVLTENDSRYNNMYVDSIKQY
Chain of human TLR7 (Q9NYK1 27-1049): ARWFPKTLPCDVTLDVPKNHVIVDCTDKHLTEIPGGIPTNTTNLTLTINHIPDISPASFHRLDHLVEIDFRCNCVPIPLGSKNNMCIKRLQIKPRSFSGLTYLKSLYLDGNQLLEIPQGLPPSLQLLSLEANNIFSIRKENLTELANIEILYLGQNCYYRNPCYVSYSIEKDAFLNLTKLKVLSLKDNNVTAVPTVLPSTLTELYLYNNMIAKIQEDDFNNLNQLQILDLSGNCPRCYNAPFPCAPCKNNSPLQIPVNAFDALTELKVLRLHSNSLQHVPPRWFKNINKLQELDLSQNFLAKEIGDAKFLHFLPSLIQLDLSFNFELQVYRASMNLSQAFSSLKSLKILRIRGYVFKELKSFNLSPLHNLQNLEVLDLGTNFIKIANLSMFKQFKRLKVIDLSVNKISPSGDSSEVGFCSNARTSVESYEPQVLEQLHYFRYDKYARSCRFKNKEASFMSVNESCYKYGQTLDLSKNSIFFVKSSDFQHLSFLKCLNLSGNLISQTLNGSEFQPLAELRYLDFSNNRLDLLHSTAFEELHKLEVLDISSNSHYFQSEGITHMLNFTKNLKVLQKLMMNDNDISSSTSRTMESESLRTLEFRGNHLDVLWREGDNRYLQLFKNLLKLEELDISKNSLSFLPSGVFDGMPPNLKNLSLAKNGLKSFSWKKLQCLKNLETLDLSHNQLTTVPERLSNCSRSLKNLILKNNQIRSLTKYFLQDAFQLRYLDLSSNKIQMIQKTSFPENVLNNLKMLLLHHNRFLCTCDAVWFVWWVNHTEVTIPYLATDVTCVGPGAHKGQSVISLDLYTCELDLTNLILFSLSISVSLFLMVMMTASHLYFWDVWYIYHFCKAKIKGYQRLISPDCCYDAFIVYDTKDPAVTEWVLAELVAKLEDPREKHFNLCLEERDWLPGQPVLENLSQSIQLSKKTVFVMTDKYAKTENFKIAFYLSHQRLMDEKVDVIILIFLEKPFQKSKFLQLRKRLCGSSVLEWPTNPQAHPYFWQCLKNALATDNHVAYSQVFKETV

Compound: CO[C@@H]1C[C@H](CO)N(C(=O)CN2CCC(c3ccc4[nH]c(-c5cc(C)nc(C)c5)c(C(C)C)c4c3)CC2)C1 [Example 292, 2-(4-(2-(2,6-dimethylpyridin-4-yl)-3-isopropyl-1H-indol-5-yl)piperidin-1-yl)-1-((2R,4R)-2-(hydroxymethyl)-4-methoxypyrrolidin-1-yl)ethan-1-one]
- IC50 [1, 4]: 12.3 nM
- IC50 [2, 5]: 3.1 nM
- IC50 [3, 6]: 365 nM

Compound: Cc1cc(-c2[nH]c3ccc(C4CCN(CC(=O)NC(C)(C)C)CC4)cc3c2C(C)C)cc(C)n1 [Example 217, N-(tert-butyl)-2-(4-(2-(2,6-dimethylpyridin-4-yl)-3-isopropyl-1H-indol-5-yl)piperidin-1-yl)acetamide]
- IC50 [1, 4]: 25.8 nM
- IC50 [2, 5]: 6.2 nM
- IC50 [3, 6]: 1020 nM

Compound: Cc1cc(-c2[nH]c3ccc(C4CCN(C(=O)C5(C)CC5)CC4)cc3c2C(C)C)ccn1 [Example 610, (4-(3-isopropyl-2-(2-methylpyridin-4-yl)-1H-indol-5-yl)piperidin-1-yl)(1-methylcyclopropyl)methanone]
- IC50 [1, 4]: 163 nM
- IC50 [2, 5]: 48.6 nM
- IC50 [3, 6]: 47300 nM

Compound: CCc1c(-c2ccnc(C)c2)[nH]c2ccc(C3CCN(C(=O)C4(C)CCNCC4)CC3)cc12 [Example 626, (4-(3-ethyl-2-(2-methylpyridin-4-yl)-1H-indol-5-yl)piperidin-1-yl)(4-methylpiperidin-4-yl)methanone]
- IC50 [1, 4]: 53.5 nM
- IC50 [2, 5]: 62.6 nM
- IC50 [3, 6]: 169 nM

Compound: Cc1cc(-c2[nH]c3ccc(C4CCN(C(=O)CNCC5CCCO5)CC4)cc3c2C(C)C)cc(C)n1 (stereo not drawn) [Example 373, 1-(4-(2-(2,6-dimethylpyridin-4-yl)-3-isopropyl-1H-indol-5-yl)piperidin-1-yl)-2-(((tetrahydrofuran-2-yl)methyl)amino)ethan-1-one]
- IC50 [1, 4]: 17.5 nM
- IC50 [2, 5]: 2.5 nM
- IC50 [3, 6]: 429 nM

Compound: CCOC(=O)N1CCC(c2ccc3[nH]c(-c4ccnc(C)c4)c(C(C)C)c3c2)CC1 [Example 560, ethyl 4-(3-isopropyl-2-(2-methylpyridin-4-yl)-1H-indol-5-yl)piperidine-1-carboxylate]
- IC50 [1, 4]: 607 nM
- IC50 [2, 5]: 247 nM
- IC50 [3, 6]: 10400 nM

Compound: Cc1cc(-c2[nH]c3ccc(C4CCNCC4)c(F)c3c2C(C)C)ccn1 [Example 76, 4-fluoro-3-isopropyl-2-(2-methylpyridin-4-yl)-5-(piperidin-4-yl)-1H-indole]
- IC50 [1, 4]: 2.7 nM
- IC50 [2, 5]: 1.4 nM
- IC50 [3, 6]: 440 nM

Compound: Cc1cc(-c2[nH]c3ccc(C4CCN(CC(=O)N(C(C)C)C(C)C)CC4)cc3c2C(C)C)cc(C)n1 [Example 253, 2-(4-(2-(2,6-dimethylpyridin-4-yl)-3-isopropyl-1H-indol-5-yl)piperidin-1-yl)-N,N-diisopropylacetamide]
- IC50 [1, 4]: 37.1 nM
- IC50 [2, 5]: 19.7 nM
- IC50 [3, 6]: 1340 nM

Compound: COCCNC(=O)CN1CCC(c2ccc3[nH]c(-c4cc(C)nc(C)c4)c(C(C)C)c3c2)CC1 [Example 231, 2-(4-(2-(2,6-dimethylpyridin-4-yl)-3-isopropyl-1H-indol-5-yl)piperidin-1-yl)-N-(2-methoxyethyl)acetamide]
- IC50 [1, 4]: 10.1 nM
- IC50 [2, 5]: 8.6 nM
- IC50 [3, 6]: 1130 nM

Compound: Cc1cc(-c2[nH]c3ccc(C4CCN(C(=O)CN5CCCCC5)CC4)cc3c2C(C)C)cc(C)n1 [Example 351, 1-(4-(2-(2,6-dimethylpyridin-4-yl)-3-isopropyl-1H-indol-5-yl)piperidin-1-yl)-2-(piperidin-1-yl)ethan-1-one]
- IC50 [1, 4]: 7.3 nM
- IC50 [2, 5]: 3.1 nM
- IC50 [3, 6]: 559 nM

Compound: Cc1cc(-c2[nH]c3ccc(C4CCN(Cc5nnc(C6CC6)o5)CC4)cc3c2C(C)C)cc(C)n1 [Example 448, 2-cyclopropyl-5-((4-(2-(2,6-dimethylpyridin-4-yl)-3-isopropyl-1H-indol-5-yl)piperidin-1-yl)methyl)-1,3,4-oxadiazole]
- IC50 [1, 4]: 55.6 nM
- IC50 [2, 5]: 51.2 nM
- IC50 [3, 6]: 47400 nM

Compound: CCc1c(-c2ccnc(C)c2)[nH]c2ccc(C3CCN(C(=O)[C@H]4CC(F)(F)CN4)CC3)cc12 [Example 623, (R)-(4,4-difluoropyrrolidin-2-yl)(4-(3-ethyl-2-(2-methylpyridin-4-yl)-1H-indol-5-yl)piperidin-1-yl)methanone]
- IC50 [1, 4]: 226 nM
- IC50 [2, 5]: 201 nM
- IC50 [3, 6]: 14500 nM

Compound: CNC(=O)CN1CCC(c2ccc3[nH]c(-c4cc(C)ncc4F)c(C(C)C)c3c2)CC1 [Example 654, 2-(4-(2-(5-fluoro-2-methylpyridin-4-yl)-3-isopropyl-1H-indol-5-yl)piperidin-1-yl)-N-methylacetamide]
- IC50 [1, 4]: 3.2 nM
- IC50 [2, 5]: 2.8 nM
- IC50 [3, 6]: 3140 nM

Compound: Cc1nccc(-c2[nH]c3ccc(C4CCN(C5COC5)CC4)cc3c2C(C)C)c1F [Example 730, 2-(3-fluoro-2-methylpyridin-4-yl)-3-isopropyl-5-(1-(oxetan-3-yl)piperidin-4-yl)-1H-indole]
- IC50 [1, 4]: 8.2 nM
- IC50 [2, 5]: 9.2 nM
- IC50 [3, 6]: 9410 nM

Compound: Cc1cc(-c2[nH]c3ccc(C4CCN(C(=O)C5CCN(C)CC5)CC4)cc3c2C(C)C)cc(C)n1 [Example 110, (4-(2-(2,6-dimethylpyridin-4-yl)-3-isopropyl-1H-indol-5-yl)piperidin-1-yl)(1-methylpiperidin-4-yl)methanone]
- IC50 [1, 7]: 8.1 nM
- IC50 [2, 5]: 3.9 nM
- IC50 [3, 8]: 385 nM

Compound: Cc1cc(-c2[nH]c3ccc(C4CCNCC4)cc3c2C(C)C)c(F)cn1 [Example 16, 2-(5-fluoro-2-methylpyridin-4-yl)-3-isopropyl-5-(piperidin-4-yl)-1H-indole]
- IC50 [1, 4]: 1.4 nM
- IC50 [2, 5]: 1.5 nM
- IC50 [3, 6]: 2480 nM

Compound: Cc1cc(-c2[nH]c3ccc(C4CCN(Cc5cnc[nH]5)CC4)cc3c2C(C)C)ccn1 [Example 820, 5-(1-((1H-imidazol-5-yl)methyl)piperidin-4-yl)-3-isopropyl-2-(2-methylpyridin-4-yl)-1H-indole]
- IC50 [1, 9]: 5.8 nM
- IC50 [2, 10]: 71.5 nM
- IC50 [3, 11]: 209 nM

Compound: Cc1cc(-c2[nH]c3ccc(C4CCN(Cc5nncn5C)CC4)cc3c2C(C)C)cc(C)n1 [Example 464, 2-(2,6-dimethylpyridin-4-yl)-3-isopropyl-5-(1-((4-methyl-4H-1,2,4-triazol-3-yl)methyl)piperidin-4-yl)-1H-indole]
- IC50 [1, 4]: 6.3 nM
- IC50 [2, 5]: 6.3 nM
- IC50 [3, 6]: 2560 nM

Compound: Cc1cc(-c2[nH]c3ccc(C4CCN(C(C)C)CC4)cc3c2C(C)C)ccn1 [Example 869, 3-isopropyl-5-(1-isopropylpiperidin-4-yl)-2-(2-methylpyridin-4-yl)-1H-indole]
- IC50 [1, 9]: 12.3 nM
- IC50 [2, 10]: 13.2 nM
- IC50 [3, 11]: 803 nM

Compound: Cc1cc(-c2[nH]c3ccc(C4CCN(Cc5ncccn5)CC4)cc3c2C(C)C)cc(C)n1 [Example 460, 2-(2,6-dimethylpyridin-4-yl)-3-isopropyl-5-(1-(pyrimidin-2-ylmethyl)piperidin-4-yl)-1H-indole]
- IC50 [1, 4]: 5.8 nM
- IC50 [2, 5]: 6.2 nM
- IC50 [3, 6]: 396 nM

Compound: CCc1cc(-c2[nH]c3ccc(C4CCNCC4)cc3c2C(C)C)c(F)cn1 [Example 482, 2-(2-ethyl-5-fluoropyridin-4-yl)-3-isopropyl-5-(piperidin-4-yl)-1H-indole]
- IC50 [1, 4]: 19.2 nM
- IC50 [2, 5]: 10.6 nM
- IC50 [3, 6]: 3690 nM

Compound: Cc1cc(-c2[nH]c3ccc(C4CCN(C(=O)CNC5(C)CCC5)CC4)cc3c2C(C)C)cc(C)n1 [Example 353, 1-(4-(2-(2,6-dimethylpyridin-4-yl)-3-isopropyl-1H-indol-5-yl)piperidin-1-yl)-2-((1-methylcyclobutyl)amino)ethan-1-one]
- IC50 [1, 4]: 9.5 nM
- IC50 [2, 5]: 4 nM
- IC50 [3, 6]: 429 nM

Compound: COc1cc(-c2[nH]c3ccc(C4CCN(Cc5c[nH]c(C)n5)CC4)cc3c2C(C)C)ccn1 [Example 520, 3-isopropyl-2-(2-methoxypyridin-4-yl)-5-(1-((2-methyl-1H-imidazol-4-yl)methyl)piperidin-4-yl)-1H-indole]
- IC50 [1, 4]: 27.1 nM
- IC50 [2, 5]: 42.7 nM
- IC50 [3, 6]: 437 nM

Compound: Cc1cc(-c2[nH]c3ccc(C4CCN(CC(=O)N5CC(O)C5)CC4)cc3c2C(C)C)cc(C)n1 [Example 229, 2-(4-(2-(2,6-dimethylpyridin-4-yl)-3-isopropyl-1H-indol-5-yl)piperidin-1-yl)-1-(3-hydroxyazetidin-1-yl)ethan-1-one]
- IC50 [1, 7]: 7.1 nM
- IC50 [2, 5]: 6.4 nM
- IC50 [3, 8]: 165 nM

Compound: Cc1cc(-c2[nH]c3ccc(C4CCN(C(=O)CN5CCC(F)CC5)CC4)cc3c2C(C)C)cc(C)n1 [Example 388, 1-(4-(2-(2,6-dimethylpyridin-4-yl)-3-isopropyl-1H-indol-5-yl)piperidin-1-yl)-2-(4-fluoropiperidin-1-yl)ethan-1-one]
- IC50 [1, 4]: 20.9 nM
- IC50 [2, 5]: 4.3 nM
- IC50 [3, 6]: 831 nM

Compound: Cc1cc(-c2[nH]c3ccc(C4CCN(C(=O)CCn5nc(C)cc5C)CC4)cc3c2C(C)C)cc(C)n1 [Example 125, 3-(3,5-dimethyl-1H-pyrazol-1-yl)-1-(4-(2-(2,6-dimethylpyridin-4-yl)-3-isopropyl-1H-indol-5-yl)piperidin-1-yl)propan-1-one]
- IC50 [1, 4]: 224 nM
- IC50 [2, 5]: 47.4 nM
- IC50 [3, 6]: 45600 nM

Compound: Cc1cc(-c2[nH]c3ccc(C4CCN(CC(O)C(C)C)CC4)cc3c2C(C)C)cc(C)n1 (stereo not drawn) [Example 849, 1-(4-(2-(2,6-dimethylpyridin-4-yl)-3-isopropyl-1H-indol-5-yl)piperidin-1-yl)-3-methylbutan-2-ol]
- IC50 [1, 9]: 2.3 nM
- IC50 [2, 10]: 1.4 nM
- IC50 [3, 11]: 291 nM

Compound: Cc1cc(-c2[nH]c3ccc(C4CCN(CC(=O)NCCO)CC4)cc3c2C(C)C)cc(C)n1 [Example 222, 2-(4-(2-(2,6-dimethylpyridin-4-yl)-3-isopropyl-1H-indol-5-yl)piperidin-1-yl)-N-(2-hydroxyethyl)acetamide]
- IC50 [1, 4]: 15.9 nM
- IC50 [2, 5]: 2.7 nM
- IC50 [3, 6]: 2240 nM
